According to patent US6521615B2, “Diagnosing an animal for pyrophosphate gout, osteoporosis, or osteoarthritis by assaying intracellular pyrophosphate content in peripheral blood cells” (The Regents of the University of California, priority 1998, dated 2003):
Entries after “also recorded” stand apart in the source; their conditions may differ. Where two headings read alike, the source gives them in different places.

Test system: human peripheral blood lymphocytes (mononuclear cells)
Protocol: Mononuclear Cell Isolation: For this purpose 5 ml of freshly drawn heparinized blood was layered on 3.0 ml of Histopaque in a 15 ml polypropylene centrifuge tube and centrifuged at room temperature for 20 minutes at 1,000 g. The mononuclear cell layer was then removed from the tube and transferred into a new 15-ml tube. Volume was brought to a total of 5 ml by addition of Hanks buffered salt solution lacking Mg and Ca (HBSS). This suspension of cells was again layered onto 3.0 ml of Histopaque and again centrifuged as before.
Resuspension of the centrifuged cells in 12-ml HBSS was repeated three times, each followed by 10 min centrifugation at a lower g of 250 g, 50 g, and 50 g to remove contaminating platelets which carry substantial PPi.
After decanting the supernatant, the cell pellet was resuspended in 1.0 ml of HBSS for counting in a hemocytometer. After counting, the cell suspension was spun for 10 minutes in a microfuge at 14,000 rpm. After decanting and thoroughly removing the supernatant, 3.0 μl of 0.1 M sodium […] (an alkaline phosphatase inhibitor) were added and the cells were lysed by addition of 100 μl of 1% triton X-100 and vortexing. The lysate is then stored frozen at −20° C. until time of assay.
PPi Assay: The assay of PPi in mononuclear cells in Tables 1 and 2 were done by the luminescent methods (Barshop, B A et al. Analyt Biochem (1991) 197:266-272). […] Each sample was assayed in duplicate and in the presence and absence of added pyrophosphate as a recovery test.
Volunteer two was an adult volunteer who had just been scheduled by the same internist to start the same medication for their hypertension.

COc1ccc([C@@H]2Sc3ccccc3N(CCN(C)C)C(=O)[C@@H]2OC(C)=O)cc1 [diltiazem]
effect on intracellular concentration of pyrophosphate (PPi) (mononuclear cells of peripheral blood, result in words): lowers the intracellular concentration of pyrophosphate (PPi); also recorded: comparable lowering of mononuclear cells in one of two patients
PPi (subject one (chondrocalcinosis), diltiazem 60 mg/day taken for only one day, collection 03/13/91): 241 pmole/10^6 cells
PPi (subject one (chondrocalcinosis), diltiazem 60 mg/day, collection 05/16/91): 128 pmole/10^6 cells
PPi (subject three (chondrocalcinosis), diltiazem 60 mg/day, collection 09/11/91): 343 pmole/10^6 cells
